Reference: US10836742B2, “N-substituted bicyclic lactams, their preparation and their use as pharmaceuticals” (NEOMED Institute, priority 2015, dated 2020)

What was measured:
BRD4(BD1) = BRD4(BD1) (Homo sapiens (Human), UniProt O60885); assay: In vitro bromodomain inhibition assay (AlphaLISA, H4-tetraacetyl peptide); assay type: binding; settings: His-tagged BRD4 BD1 200 nM, biotinylated H4-tetraacetyl peptide 200 nM
Method: a) In vitro Bromodomain Inhibition Assay
To measure activity of bromodomain inhibitors, a His-epitope tagged BRD4 BD149-170 is purchased from BPS Bioscience. BRD4 binding and inhibition is assessed by monitoring the engagement of biotinylated H4-tetraacetyl peptide (H4K5/8/12/16; AnaSpec #64989-025) with the target using the AlphaLISA technology (Perkin-Elmer). Specifically, in a 384 well OptiPlate, BRD4(BD1) (200 nM final) is pre-incubated with either DMSO (final 1.0% DMSO) or a compound dilution series in DMSO. All reagents are diluted in assay buffer containing 50 mM HEPES (pH 7.4), 100 mM NaCl, 0.1% (w/v) BSA, and 0.05% (w/v) CHAPS. After a 30 minute incubation at room temperature, H4 peptide is added (200 nM final) and the reaction is incubated an additional 30 minutes at room temperature. Alpha streptavidin donor beads and AlphaLISA nickel chelate acceptor beads are then added to a final concentration of 10 μg/mL each. After one hour, equilibration plates are read on an Envision instrument and IC50s calculated using a four parameter non-linear curve fit (results are shown in Table 2).

[1] = test system: human C-Myc gene transcription in MV-4-11 cells; assay: Transcription of human C-Myc in human leukemic MV-4-11 cells (QuantiGene 2.0); assay type: cell-based; settings: inhibition of C-Myc mRNA transcription, 4 hours treatment
Method: b) Transcription of Human C-Myc in Human Leukemic MV-4-11 Cells:
The effect of compounds on transcription of human C-Myc gene is monitored in human B-myelomonocytic leukemia cell line MV-4-11 (from American Type Culture Collection (ATCC), Manassas, Va., USA) using QuantiGene 2.0 assay kit (Affymetrix, Santa Clara, Calif., USA).
Typically, 8,000 MV-4-11 cells are plated in sterile 96-well plates (Costar #3598 from Fisher Scientific Canada, Ottawa, Ontario, Canada) in Iscove's medium supplemented with 10% fetal bovine serum, glutamine (2 mM), and penicillin (100 I.U.) and streptomycin (100 μg/mL) (all from Wisent Inc., St. Bruno, Quebec, Canada). Compounds are dissolved in DMSO at 30 mM. A series of 1:3 dilutions are first made in DMSO, and further 1:100 dilutions are made in serum-containing cell culture media. The final concentration of DMSO is 0.1% in cell culture media. After cells are treated with various concentrations of test compound for 4 hours, cells are lysed using Quantigene 2.0 sample processing kit (#QS0100). C-Myc mRNA is detected using a QuantiGene 2.0 assay kit (#QS0009) with gene-specific probe to human C-Myc (#SA-50182) following the manufacturer's recommendations. Luminescene signals are read on Flexstation II microplate reader (Molecular Devices, Sunnyvale, Calif., USA).

| SMILES | IC50 (BRD4(BD1)) [nM] | IC50 [1] [nM] | IC50 ([1]; Homo sapiens, MV4-11, 4 h) [nM] |
| --- | --- | --- | --- |
| Cc1cc(-c2ccc3c(c2)N(CC2CCCCO2)C(=O)CC3)cn(C)c1=O (single isomer, unassigned) [Compound 15, 7-(1,5-dimethyl-6-oxo-3-pyridyl)-1-(tetrahydropyran-2-ylmethyl)-3,4-dihydroquinolin-2-one] | 1530 | 600 | – |
| COc1cc2c(cc1-c1cc(C)c(=O)n(C)c1)CCC(=O)N2C(C)c1ccccn1 (stereo not shown) [Compound 3, 6-(1,5-dimethyl-6-oxo-3-pyridyl)-7-methoxy-1-[1-(2-pyridyl)ethyl]-3,4-dihydroquinolin-2-one] | – | – | 900 |
| Cc1cc(-c2ccc3c(c2)N(C(C)c2ccccc2)C(=O)CC3)cn(C)c1=O (single isomer, unassigned) [Compound 13, 7-(1,5-dimethyl-6-oxo-3-pyridyl)-1-(1-phenylethyl)-3,4-dihydroquinolin-2-one] | 320 | 160 | – |
| Cc1cc(-c2ccc3c(c2)N(CC2CC(F)(F)C2)C(=O)CC3)cn(C)c1=O [Compound 11, 1-[(3,3-difluorocyclobutyl)methyl]-7-(1,5-dimethyl-6-oxo-3-pyridyl)-3,4-di hydroquinolin-2-one] | 860 | – | 870 |
| Cc1cc(-c2cc(C)c(=O)n(C)c2)cc2c1N(Cc1ccccc1)C(=O)CC2 [Compound 21, 1-Benzyl-6-(1,5-dimethyl-6-oxo-1,6-dihydropyridin-3-yl)-8-methyl-3,4-dihydroquinolin-2(1H)-one] | – | – | 810 |
| COc1cc2c(cc1-c1cc(C)c(=O)n(C)c1)CCC(=O)N2C(C)c1ccccc1 (stereo not shown) [Compound 2, 6-(1,5-dimethyl-6-oxo-3-pyridyl)-7-methoxy-1-(1-phenylethyl)-3,4-dihydroquinolin-2-one] | – | 830 | – |
| Cc1cc(-c2ccc3c(c2)N(CCOC(F)(F)F)C(=O)CC3)cn(C)c1=O [Compound 8, 7-(1,5-dimethyl-6-oxo-3-pyridyl)-1-[2-(trifluoromethoxy)ethyl]-3,4-dihydroquinolin-2-one] | 940 | – | 820 |
| Cc1cc(-c2cc(Cl)c3c(c2)CCC(=O)N3Cc2ccccc2)cn(C)c1=O [Compound 22, 1-benzyl-8-chloro-6-(1,5-dimethyl-6-oxo-1,6-dihydropyridin-3-yl)-3,4-dihydroquinolin-2(1H)-one] | – | – | 840 |
| COc1cc2c(cc1-c1cc(C)c(=O)n(C)c1)CCC(=O)N2C(C)c1ccccn1 (stereo not shown) [Compound 4, 6-(1,5-dimethyl-6-oxo-3-pyridyl)-7-methoxy-1-[1-(2-pyridyl)ethyl]-3,4-dihydroquinolin-2-one] | – | 830 | – |
| Cc1cc(-c2ccc3c(c2)N(C(C)c2ccccc2)C(=O)CC3)cn(C)c1=O (single isomer, unassigned) [Compound 12, 7-(1,5-dimethyl-6-oxo-3-pyridyl)-1-(1-phenylethyl)-3,4-dihydroquinolin-2-one] | 910 | 900 | – |
| Cc1cc(-c2ccc3c(c2)CCC(=O)N3Cc2ccccc2)cn(C)c1=O [Compound 5, 1-benzyl-6-(1,5-dimethyl-6-oxo-3-pyridyl)-3,4-dihydroquinolin-2-one] | – | – | 840 |
| Cc1cc(-c2ccc3c(c2)N(Cc2ccccn2)C(=O)CO3)cn(C)c1=O [Compound 18, 6-(1,5-dimethyl-6-oxo-3-pyridyl)-4-(2-pyridylmethyl)-1,4-benzoxazin-3-one] | 580 | – | 860 |

Further compounds by falling IC50 ([1]; Homo sapiens, MV4-11, 4 h), results first:

| IC50 (BRD4(BD1)) [nM] | IC50 [1] [nM] | IC50 ([1]; Homo sapiens, MV4-11, 4 h) [nM] | SMILES |
| --- | --- | --- | --- |
| 2580 | – | 780 | COc1cc(-c2cc(C)c(=O)n(C)c2)cc2c1N(Cc1ccccc1)C(=O)CC2 [Compound 6, 1-benzyl-6-(1,5-dimethyl-6-oxo-1,6-dihydropyridin-3-yl)-8-methoxy-3,4-dihydroquinolin-2(1H)-one] |
| 810 | – | 750 | Cc1cc(-c2ccc3c(c2)N(CC2CC(F)(F)C2)C(=O)CO3)cn(C)c1=O [Compound 19, 4-[(3,3-difluorocyclobutyl)methyl]-6-(1,5-dimethyl-6-oxo-3-pyridyl)-1,4-benzoxazin-3-one] |
| 1580 | – | 600 | Cc1cc(-c2ccc3c(c2)OCC(=O)N3Cc2ccccc2)cn(C)c1=O [Compound 16, 4-benzyl-7-(1,5-dimethyl-6-oxo-3-pyridyl)-1,4-benzoxazin-3-one] |
| 3670 | – | 590 | Cc1cc(-c2ccc3c(c2)N(CC2CCCCO2)C(=O)CC3)cn(C)c1=O (single isomer, unassigned) [Compound 14, 7-(1,5-dimethyl-6-oxo-3-pyridyl)-1-(tetrahydropyran-2-ylmethyl)-3,4-dihydroquinolin-2-one] |
| 700 | – | 570 | Cc1cc(-c2ccc3c(c2)N(Cc2ccc(F)cc2)C(=O)CC3)cn(C)c1=O [Compound 9, 7-(1,5-dimethyl-6-oxo-3-pyridyl)-1-[(4-fluorophenyl)methyl]-3,4-dihydro-quinolin-2-one] |
| – | – | 550 | COc1cc2c(cc1-c1cc(C)c(=O)n(C)c1)CCC(=O)N2C(C)c1ccccc1 (stereo not shown) [Compound 1, 6-(1,5-dimethyl-6-oxo-3-pyridyl)-7-methoxy-1-(1-phenylethyl)-3,4-dihydroquinolin-2-one] |
| 420 | – | 540 | Cc1cc(-c2ccc3c(c2)N(Cc2ccccn2)C(=O)CC3)cn(C)c1=O [Compound 10, 7-(1,5-dimethyl-6-oxo-3-pyridyl)-1-(2-pyridylmethyl)-3,4-dihydroquinolin-2-one] |
| 880 | – | 500 | Cc1cc(-c2ccc3c(c2)N(CCOC(F)(F)F)C(=O)CO3)cn(C)c1=O [Compound 20, 6-(1,5-dimethyl-6-oxo-3-pyridyl)-4-[2-(trifluoromethoxy)ethyl]-1,4-benzoxazin-3-one] |
| 740 | – | 260 | Cc1cc(-c2ccc3c(c2)N(Cc2ccccc2)C(=O)CC3)cn(C)c1=O [Compound 7, 1-benzyl-7-(1,5-dimethyl-6-oxo-3-pyridyl)-3,4-dihydroquinolin-2-one] |
| 460 | – | 96 | Cc1cc(-c2ccc3c(c2)N(Cc2ccccc2)C(=O)CO3)cn(C)c1=O [Compound 17, 4-benzyl-6-(1,5-dimethyl-6-oxo-3-pyridyl)-1,4-benzoxazin-3-one] |
